We go through 7 compounds from patent US7794934B2, “Predicting negative symptom change during drug treatment” (Centre for Addiction and Mental Health, priority 2006, dated 2010).

The test system of experiment [1] is patients with schizophrenia. To be noted: cited from earlier work.
Another experiment relates to NMDA receptors. To be noted: Wang and Liang 1998; cited from earlier work.
The test system of another experiment is schizophrenic subjects. In words: Negative symptom improvement (SADSneg subscale) over six months of clozapine treatment, by GRIN2B T5988C genotype. The class given is in vivo, human. To be noted: after six months of clozapine treatment, baseline as covariate. The method, then: Our sample consisted of 90 schizophrenic subjects treated with clozapine. The majority of the patients were Caucasian. The second most represented ethnicity was African American. The ratio of males to females was approximately 2.5:1. The overall response to clozapine treatment over six months was assessed using the Brief Psychiatric Rating Scale (BPRS) and the Schedule for Affective Disorders and Schizophrenia (SADS). The sample is composed of a group of patients from the Cleveland area (obtained from Dr. H. Y Meltzer, Case Western Reserve University), as part of a multisite coordinated clinical trial of clozapine response. Data on the specific assessment of negative symptom improvement in response to clozapine treatment were collected over a six month period (baseline minus 6 month score). Negative symptom improvement over a period of six months was assessed using the Brief Psychiatric Rating Scale subscale for negative symptoms (BPRSneg), and the Schedule for Affective Disorders and Schizophrenia subscale for negative symptoms (SADSneg).
Analysis of Covariance (ANCOVA) was performed in order to test the effect of genotype on negative symptom improvement as measured by the SADSneg subscale. The baseline score for the SADSneg, assessed before the clozapine treatment was started, was used as a covariate, in part to control for regression to the mean effects.

Experiment [2] relates to neurotoxicity induced by NMDA receptor antagonists. To be noted: Farber 1993, 1996; Olney 1994; cited from earlier work.
Another experiment relates to NMDA receptor. To be noted: at therapeutic levels (Lidsky et al. 1993); cited from earlier work.
Experiment [3] concerns the target glycine binding site associated with the NMDAR complex (Homo sapiens, UniProt Q05586). To be noted: cited from earlier work.
For experiment [4], the system named is NMDA-receptor-mediated neurotransmission. To be noted: Arvanov et al. 1997; cited from earlier work.
Experiment [5] concerns PCP-induced social withdrawal. To be noted: rats (Corbett et al. 1995); cited from earlier work.
Setting [6] is: added to conventional antipsychotics.

Each structure is given as a SMILES string. Where two headings read alike, the source gives them in different places.

Take `N[C@@H]1CONC1=O` [D-cycloserine]: the “effect on negative symptoms” value in experiment [1] (added to clozapine) was “worsening of negative symptoms”. Besides, in experiment [1] (setting [6]), the “effect on negative symptoms” value is “significantly improved” and the “performance on a cognitive battery” value was “did not improve”.
Consider `COc1cccc([C@H](O)C2CCN(CCc3ccc(F)cc3)CC2)c1OC` [M100907], for which the “prevention of PCP-induced blockade of NMDA receptors” value with NMDA receptors was “prevented”.
Take `CN1CCN(C2=Nc3cc(Cl)ccc3Nc3ccccc32)CC1` [clozapine]: the figures for the “SADSneg mean (mean converted change score, baseline minus 6 month score)” value in the experiment with schizophrenic subjects (GRIN2B 5988 C C genotype), with schizophrenic subjects (GRIN2B 5988 C T genotype) and with schizophrenic subjects (GRIN2B 5988 T T genotype) were 1.3, 1.26 and 1.87, respectively.
As to `CN1CCN(C2=Nc3cc(F)ccc3Cc3ccccc32)CC1` [fluperlapine], the “prevention of neurotoxicity induced by NMDA receptor antagonists” value (shortened to “prevention of neurotoxicity induced”) in experiment [2] is “strongly prevented”.
Consider `O=C(CCCN1CCC(O)(c2ccc(Cl)cc2)CC1)c1ccc(F)cc1` [haloperidol], for which the “displacement of the ligand [3H]MK801 from the NMDA receptor” value in the experiment with NMDA receptor was “not”. In addition, the “mode of action at the glycine binding site associated with the NMDAR complex” value in experiment [3] (Lidsky et al. 1997) is reported as “partial agonist”. In experiment [3] (in the absence of glycine (Lidsky et al. 1997)), the “effect on NMDA receptor activity” value was “augmented”. Moreover, the “enhancement of NMDA-receptor-mediated neurotransmission” value in experiment [4] is reported as “not”. Besides, in experiment [5], the “reversal of PCP-induced social withdrawal” value was “not”. The “prevention of neurotoxicity induced” value in experiment [2] was “intermediate effectiveness”.
`Cc1nc2n(c(=O)c1CCN1CCC(c3noc4cc(F)ccc34)CC1)CCCC2` [risperidone]: the “reversal of PCP-induced social withdrawal” value in experiment [5] was “not”.
For `CSc1ccc2c(c1)N(CCC1CCCCN1C)c1ccccc1S2` (stereo not shown) [thioridazine], the “prevention of neurotoxicity induced” value in experiment [2] is reported as “intermediate effectiveness”.
